Measurements as given in patent publication US20220031723A1, “POWDERED FOOD COMPOSITION COMPRISING ERIOCITRIN” (EUROMED, S.A., priority 2020, published 2022).
Values after ≈ are worked out from the molar mass of the structure shown.

Assays:
[1] = cited from earlier work; for water solubility: in water
[2] = Urinary excretion of quantified metabolites in collected fractions after extract intake; format: in vivo, human; settings: mean ± SD; for Metabolite quantified in urine fraction F1: fraction 0 to 4 h; for Metabolite quantified in urine fraction F2: fraction 4 to 8 h; for Metabolite quantified in urine fraction F3: fraction 8 to 10 h; for Metabolite quantified in urine fraction F4: fraction collected at 24 h (10-24 h); for Metabolite quantified in urine, Total F (24 h): sum of fractions F1-F4
Protocol: Table 4 and Table 5 show the urinary excretion of quantified metabolites at the different fractions collected, i.e., 0-4 h (F1), 4-8 h (F2), 8-10 h (F3), and 10-24 h (F4), after extracts intake.

[3] = Occurrence of plasma and urine metabolites in volunteers after consuming lemon or orange extract; format: in vivo, human; settings: human, in vivo
Excerpt: Through a targeted metabolomic strategy, a total of 17 metabolites were tentatively identified (Table 3). No hesperidin or eriocitrin-derived metabolites were detected in any volunteer at baseline. All the identified metabolites were detected at least in one volunteer, independently of the extract consumed, except for the metabolites M9 (eriodictyol sulfoglucuronide) and M11 (hesperetin sulfoglucuronide), which only were detected after consuming lemon and orange extract, respectively (Table 3). These representative EICs illustrate the metabolites identified in urine (F3 fraction) after consuming lemon (FIG. 3A) and orange (FIG. 3B) extracts, and plasma after consuming lemon (FIG. 3C) and orange (FIG. 3D) extracts. From the 17 metabolites, 16 were detected after consuming lemon extract (except M11), and 15 after consuming orange extract (except M9 and M10 in urine, and M9 and M12 in plasma) (Table 3).

Compound	solubility in water [1] [micrograms/ml]	water solubility [1]	Metabolite quantified in urine fraction F1 ([2]; after consuming lemon extract) [μg/mg creatinine]	Metabolite quantified in urine fraction F2 ([2]; after consuming lemon extract) [μg/mg creatinine]	Metabolite quantified in urine fraction F3 ([2]; after consuming lemon extract) [μg/mg creatinine]	Metabolite quantified in urine fraction F4 ([2]; after consuming lemon extract) [μg/mg creatinine]	Metabolite quantified in urine, Total F (24 h) ([2]; after consuming lemon extract) [μg/mg creatinine]	Metabolite quantified in urine fraction F1 ([2]; after consuming orange extract) [μg/mg creatinine]	Metabolite quantified in urine fraction F2 ([2]; after consuming orange extract) [μg/mg creatinine]	Metabolite quantified in urine fraction F3 ([2]; after consuming orange extract) [μg/mg creatinine]	Metabolite quantified in urine fraction F4 ([2]; after consuming orange extract) [μg/mg creatinine]	Metabolite quantified in urine, Total F (24 h) ([2]; after consuming orange extract) [μg/mg creatinine]	Occurrence Plasma LE (number of volunteers in whom metabolite was detected) [3]	Occurrence Plasma LE (second column so headed; number of volunteers in whom metabolite was detected) [3]	Occurrence Urine LE (number of volunteers in whom metabolite was detected) [3]	Occurrence Urine LE (second column so headed; number of volunteers in whom metabolite was detected) [3]
C[C@@H]1O[C@@H](OC[C@H]2O[C@@H](Oc3cc(O)c4c(c3)O[C@H](c3ccc(O)c(O)c3)CC4=O)[C@H](O)[C@@H](O)[C@@H]2O)[C@H](O)[C@H](O)[C@H]1O [eriocitrin, Eriocitrin]	4000	about 40 mg/ml														
COc1ccc([C@@H]2CC(=O)c3c(O)cc(O[C@@H]4O[C@H](CO[C@@H]5O[C@@H](C)[C@H](O)[C@@H](O)[C@H]5O)[C@@H](O)[C@H](O)[C@H]4O)cc3O2)cc1O [hesperidin, Hesperidin, reference compound]	5	4.9 µg/mL (≈ 8.03 µM)														
Eriodictyol sulfate [M13]			4.6 ± 5.0	14.6 ± 17.3	11.9 ± 12.6	1.5 ± 1.5	32.6 ± 36.5	0.02 ± 0.01	0.1 ± 0.1	0.2 ± 0.4	0.3 ± 0.4	0.6 ± 0.9	16	10	16	12
Homoeriodictyol glucuronide [M6]			13.9 ± 16.2	48.1 ± 90.0	37.2 ± 56.9	6.8 ± 8.0	106 ± 171						16	3	16	3
Homoeriodictyol sulfate [M10]			3.8 ± 3.2	4.0 ± 5.5	3.6 ± 4.1	0.5 ± 0.4	9.6 ± 11.3						16	3	16	0
